Reference: patent US20240166636A1, “CRYSTALLINE COMPOUNDS AND METHODS OF MAKING THE SAME” (Epizyme, Inc., priority 2019, published 2024)

What was measured:
Assay type in all cases: physicochemical
[1] = Hygroscopicity (dynamic vapor sorption); details: compared to other salt forms of Compound I
Procedure: Dynamic Vapor Sorption (DVS) was measured on a VTI Model SGA-100 system. Measurement method: The relative humidity (RH) was changed in a controlled fashion, in 5% steps from 5.0% to 95.0% then back to 5.0% using the gravimetric vapor sorption system, and the weight percentage change (wt. %) of the sample at each stage was measured.

[2] = Competitive slurry experiments, thermodynamically most stable form; details: 50/50% (w/w) mixture of Polymorph A and Polymorph B, slurried for several days, varying water content and temperature
Procedure: Several slurries were prepared, varying the water content and the temperature. […] As a result, the isolation temperature (e.g. in step b-2) was increased (e.g., from 15° C. to 22° C.) and the water content of the solvent system during the cooling crystallization was reduced (e.g., from 9.7% (v/v) to 9.0% (v/v)).

[3] = Intrinsic dissolution rate of polymorphs

| hygroscopicity [1] | SMILES | thermodynamically most stable form as a function of temperature and water content in the solvent [2] | Intrinsic Dissolution Rate (IDR) [3] [mg/min/cm^2] | % Rate relative to From A ([3]; IDR relative to Polymorph A) [%] |
| --- | --- | --- | --- | --- |
| low hygroscopicity | Br.CCN(c1cc(-c2ccc(CN3CCOCC3)cc2)cc(C(=O)NCc2c(C)cc(C)[nH]c2=O)c1C)C1CCOCC1 [Compound I hydrobromide, N-((4,6-dimethyl-2-oxo-1,2-dihydropyridin-3-yl)methyl)-5-(ethyl (tetrahydro-2H-pyran-4-yl)amino)-4-methyl-4′-(morpholinomethyl)-[1,1′-biphenyl]-3-carboxamide hydrobromide] |  |  |  |
|  | CN(C)CCc1c[nH]c2cccc(OP(=O)(O)O)c12 [Polymorph A] | stable form at higher temperatures and lower water content | 7.6 | 100 |
